Values quoted from earlier work in patent publication US20110190376A1, “RNAi-RELATED INHIBITION OF TNFa SIGNALING PATHWAY FOR TREATMENT OF MACULAR EDEMA” (ALCON RESEARCH, LTD., priority 2007, published 2011).

Experiments:
macular edema = conditions: patients also suffering from posterior uveitis
[1] = tested on: severe diabetic macular edema; conditions: eyes that had severe diabetic macular edema
[2] = tested on: refractory chronic cystoid macular edema (CME)

infliximab
resolution of macular edema (macular edema): caused macular edema to resolve in two patients | eyes with anatomic and functional improvement [1]: four of six | eyes with complete regression of refractory chronic cystoid macular edema [2]: 8 of 14
